Target: T1, MAL^TIR (Homo sapiens, UniProt P58753)
T1 construct: MAL (residues 79–221); 6xHis; made in house; host or cells: E. coli BL21 (DE3)
Experiment: T‐Surf phage library (P8 and P3) selection against MAL^TIR, four rounds, NGS read counts
Format: binding
Settings: for P8_MAL Rank (after) / P8_MAL Rank (before): P8 library; for P3_MAL Rank (after) / P3_MAL Rank (before): P3 library
Procedure, shortened: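 Read counts come from NGS of phage pools enriched over four selection rounds on the plate‐coated TIR domain (5 µg mL^−1). Each round: 1 h phage binding at room temperature after 0.2% BSA blocking, Tween washes, acid elution, amplification in E. coli TG1 with M13KO7 helper.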

[1] = selection against MAL TIR, rank by count after grouping
[2] = selection against MAL TIR, rank by count before grouping
[3] = 4R selection against MAL, rank after grouping
[4] = 4R selection against MAL, rank before grouping
[5] = P8_MAL: rank by count after grouping
[6] = P8_MAL: rank by count before grouping
[7] = selection against MAL, rank by count after grouping
[8] = selection against MAL, rank by count before grouping
[9] = P3_MAL: rank by count after grouping
[10] = P3_MAL: rank by count before grouping
[11] = selection against MAL, rank after grouping
[12] = selection against MAL, rank before grouping

T1 sequence (P58753 79-221): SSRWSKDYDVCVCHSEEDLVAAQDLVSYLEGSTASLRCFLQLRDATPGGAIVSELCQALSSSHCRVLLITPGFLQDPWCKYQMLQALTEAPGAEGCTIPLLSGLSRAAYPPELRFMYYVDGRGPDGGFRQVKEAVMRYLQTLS

SEFIQKIILWLNTKIV was tested. Which “P8_MAL Rank (after)” value [1] did it give?
The value was 203.

What about the “P8_MAL Rank (before)” value [2] of the same sequence?
Its value is 2461.

Which results are given for SEFIQKIILWMNLKNQ?
P8_MAL Rank (after) [3]: 581; P8_MAL Rank (before) [4]: 2466

How did the “Rank (after)” value [5] turn out when SEFIQKIILWMNQQIV was run?
The value was 441.

And the “Rank (before)” value [6]?
The value was 2482.

SEFIQKIILWMNQTNV was tested. Which “Rank (after)” value [5] did it give?
Its value is 440.

What about the “Rank (before)” value [6] of the same sequence?
The value was 2473.

What does the source list for SEFIQKISLWMNAKIV?
Rank (after) [5]: 171; Rank (before) [6]: 2486

What does the source list for SEFIQKITLGMNPKIG?
P8_MAL Rank (after) [3]: 673; P8_MAL Rank (before) [4]: 2481

Which “P8_MAL Rank (after)” value [7] does the source give for SEFIQKMILWMNTKVV here?
The value was 689.

What about the “P8_MAL Rank (before)” value [8] of the same sequence?
The value was 2438.

Which “Rank (after)” value [5] does the source give for SEFLGAAEKRAGQSDD here?
The value was 481.

What about the “Rank (before)” value [6] of the same sequence?
The value was 2445.

SFFDRLVSVILRDTNV was tested. Which “P8_MAL Rank (after)” value [7] did it give?
The value was 701.

What about the “P8_MAL Rank (before)” value [8] of the same sequence?
Its value is 1441.

SFFWNKLRYALTYRPAT was tested. Which “Rank (after)” value [9] did it give?
The value was 437.

What about the “Rank (before)” value [10] of the same sequence?
Its value is 2995.

With SFFWNKLRYHLPAPQH as the sequence, how does the “P8_MAL Rank (after)” value [1] read?
Its value is 269.

And the “P8_MAL Rank (before)” value [2]?
Its value is 2441.

With SFFWNKLRYHLQAKDH as the sequence, how does the “P3_MAL Rank (after)” value [11] read?
Its value is 572.

And the “P3_MAL Rank (before)” value [12]?
Its value is 3010.

For SFFWNKLRYILPAPNN, which “P3_MAL Rank (after)” value [3] is on record?
The value was 596.

What about the “P3_MAL Rank (before)” value [4] of the same sequence?
Its value is 3013.

What does the source list for SFFWSKLSYHLPAPQH?
P3_MAL Rank (after) [11]: 559; P3_MAL Rank (before) [12]: 2991

With SFLGHLYNALVQADIH as the sequence, how does the “P8_MAL Rank (after)” value [3] read?
Its value is 664.

What about the “P8_MAL Rank (before)” value [4] of the same sequence?
The value was 1452.

With SFLHFLLFSRPDTEYI as the sequence, how does the “Rank (after)” value [5] read?
The value was 413.

And the “Rank (before)” value [6]?
Its value is 1436.

SFLHFLLFSRPETASI was tested. Which “P8_MAL Rank (after)” value [3] did it give?
Its value is 642.

What about the “P8_MAL Rank (before)” value [4] of the same sequence?
The value was 1437.

With SFLHFLLLSRPETAYI as the sequence, how does the “Rank (after)” value [5] read?
Its value is 395.

And the “Rank (before)” value [6]?
The value was 1438.

How did the “P8_MAL Rank (after)” value [1] turn out when SFLYTFLITLTHPTTF was run?
The value was 266.

What about the “P8_MAL Rank (before)” value [2] of the same sequence?
Its value is 1447.

Which “P8_MAL Rank (after)” value [1] does the source give for SFLYTLLSNLTHPTNF here?
The value was 265.

What about the “P8_MAL Rank (before)” value [2] of the same sequence?
Its value is 1449.

What does the source list for SFMLKFRTVLHHVHDV?
P8_MAL Rank (after) [3]: 583; P8_MAL Rank (before) [4]: 1451

Which results are given for SFYEPQVKMVLRNTTM?
P8_MAL Rank (after) [1]: 282; P8_MAL Rank (before) [2]: 1446

SFYERLVRLILRDTTV was tested. Which “Rank (after)” value [5] did it give?
The value was 189.

What about the “Rank (before)” value [6] of the same sequence?
The value was 1444.

Which results are given for SFYWRQVSIILGDPTV?
P8_MAL Rank (after) [1]: 249; P8_MAL Rank (before) [2]: 1442

How did the “P3_MAL Rank (after)” value [1] turn out when SICREGLWRLLELSKK was run?
Its value is 284.

And the “P3_MAL Rank (before)” value [2]?
The value was 3117.

Which results are given for SKDYAQSAWALAEHEKR?
P3_MAL Rank (after) [3]: 603; P3_MAL Rank (before) [4]: 3225

Which results are given for SKDYAQSAWALEELTK?
Population (P3_MAL pool: P3 T-Surf phage library, 4th round of selection against MAL TIR, share of NGS reads): 0.0436%; Rank (after) [9]: 99; Rank (before) [10]: 99

What does the source list for SLCKNLVTNLIEEFNR?
Rank (after) [9]: 456; Rank (before) [10]: 3062

What does the source list for SLFCNKLRYHLPAPQH?
P3_MAL Rank (after) [1]: 214; P3_MAL Rank (before) [2]: 3027

Which “Rank (after)” value [9] does the source give for SLFLSSRFKDDADLVGQ here?
The value was 433.

What about the “Rank (before)” value [10] of the same sequence?
The value was 3057.

SLLKYKEALPQFHSWL was tested. Which “P3_MAL Rank (after)” value [3] did it give?
The value was 586.

What about the “P3_MAL Rank (before)” value [4] of the same sequence?
The value was 2982.

Which results are given for SLLYDHLRCWAFVRF?
P8_MAL Rank (after) [11]: 501; P8_MAL Rank (before) [12]: 2512

With SLLYDHLRRLGIRAIM as the sequence, how does the “P8_MAL Rank (after)” value [7] read?
The value was 700.

What about the “P8_MAL Rank (before)” value [8] of the same sequence?
Its value is 2491.

Which results are given for SLLYDYLRCLGIRAIL?
Rank (after) [5]: 475; Rank (before) [6]: 2493

Which results are given for SLQYAHLRWLGIRAFL?
P8_MAL Rank (after) [1]: 206; P8_MAL Rank (before) [2]: 2523

For SLRKKLVRNLIEEFKR, which “P3_MAL Rank (after)” value [7] is on record?
Its value is 688.

And the “P3_MAL Rank (before)” value [8]?
The value was 3100.

How did the “P3_MAL Rank (after)” value [11] turn out when SLRKNLLSNLIEECKR was run?
Its value is 495.

What about the “P3_MAL Rank (before)” value [12] of the same sequence?
Its value is 3097.

SLRKNLVRNLIEEFNR was tested. Which “P3_MAL Rank (after)” value [7] did it give?
Its value is 759.

What about the “P3_MAL Rank (before)” value [8] of the same sequence?
Its value is 3094.

Which “Rank (after)” value [9] does the source give for SLRNKLLSHLLEEFKS here?
The value was 418.

What about the “Rank (before)” value [10] of the same sequence?
The value was 3066.

From paper PMC11714206, “Massively Parallel Screening of Toll/Interleukin‐1 Receptor (TIR)‐Derived Peptides Reveals Multiple Toll‐Like Receptors (TLRs)‐Targeting Immunomodulatory Peptides” (Advanced Science, 2024)
